Data published in patent US20260053834A1, “COVALENT MODIFIERS OF AKT1 AND USES THEREOF” (Terremoto Biosciences, Inc., priority 2023, published 2026).

How the values were obtained:
[1] = tested on: LAPC4 prostate cancer cells, which express the AKT1 E17K allele; assay: Antiproliferative effects in LAPC4 cells (CellTiter Glo, 72 h); type: cell-based; conditions: Homo sapiens, LAPC4, 72 h, read-out: LAPC4 proliferation IC50: GeoMean IC50
Outline: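 Cells grown in IMDM with 12% FBS, seeded at 1,000 cells/well and treated with compound dilutions in DMSO for 72 h. Intracellular ATP read by luminescence. IC50 from a log(inhibitor) vs. response Hill fit.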

AKT1 E17K = target: T1, AKT1 E17K (Homo sapiens, UniProt P31749, E17K); assay: Live cell target engagement by NanoBRET competitive probe displacement, AKT1 E17K; type: binding; conditions: transfected HEK293 cells, 2 h at 37° C., read-out: AKT1 E17K IC50: GeoMean IC50
T1 construct: expressed in transfected cells; host or cells: HEK293
T1 sequence (P31749 whole entry E17K): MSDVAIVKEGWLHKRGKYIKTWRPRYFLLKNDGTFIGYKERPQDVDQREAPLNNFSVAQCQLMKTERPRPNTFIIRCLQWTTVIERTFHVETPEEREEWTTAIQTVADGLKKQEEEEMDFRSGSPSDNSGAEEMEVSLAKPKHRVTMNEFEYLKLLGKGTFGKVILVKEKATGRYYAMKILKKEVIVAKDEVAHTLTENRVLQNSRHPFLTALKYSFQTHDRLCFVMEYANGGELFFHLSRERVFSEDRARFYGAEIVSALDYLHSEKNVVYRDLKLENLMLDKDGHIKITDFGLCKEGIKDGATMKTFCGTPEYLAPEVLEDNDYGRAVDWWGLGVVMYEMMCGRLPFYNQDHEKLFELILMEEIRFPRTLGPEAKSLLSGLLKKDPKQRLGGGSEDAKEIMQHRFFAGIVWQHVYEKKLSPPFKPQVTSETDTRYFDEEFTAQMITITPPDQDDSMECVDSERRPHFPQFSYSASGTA

AKT1 WT = target: T2, AKT1 WT (Homo sapiens, UniProt P31749); assay: Live cell target engagement by NanoBRET competitive probe displacement, AKT1 WT; type: binding; conditions: transfected HEK293 cells, 2 h at 37° C., read-out: AKT1 WT IC50: GeoMean IC50
T2 construct: expressed in transfected cells; host or cells: HEK293
T2 sequence (P31749 whole entry): as the sequence (P31749 whole entry E17K) above, with K17E counted along it

AKT2 = target: T3, AKT2 (Homo sapiens, UniProt P31751); assay: Live cell target engagement by NanoBRET competitive probe displacement, AKT2; type: binding; conditions: transfected HEK293 cells, 2 h at 37° C., read-out: AKT2 IC50: GeoMean IC50
T3 construct: expressed in transfected cells; host or cells: HEK293
T3 sequence (P31751 whole entry): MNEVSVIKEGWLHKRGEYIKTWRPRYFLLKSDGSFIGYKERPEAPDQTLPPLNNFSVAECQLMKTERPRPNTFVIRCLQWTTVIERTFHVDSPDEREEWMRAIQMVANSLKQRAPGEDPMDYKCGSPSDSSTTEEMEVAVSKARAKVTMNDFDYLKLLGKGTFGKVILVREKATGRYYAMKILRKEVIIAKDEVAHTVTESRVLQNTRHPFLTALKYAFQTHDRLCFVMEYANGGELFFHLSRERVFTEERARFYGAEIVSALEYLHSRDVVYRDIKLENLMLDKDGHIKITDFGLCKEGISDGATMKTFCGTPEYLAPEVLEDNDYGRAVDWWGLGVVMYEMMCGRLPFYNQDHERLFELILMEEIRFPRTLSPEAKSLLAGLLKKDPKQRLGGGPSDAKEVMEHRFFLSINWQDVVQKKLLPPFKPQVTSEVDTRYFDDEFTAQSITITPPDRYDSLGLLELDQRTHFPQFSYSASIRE

SMILES	IC50 [1] [nM]	IC50 (AKT1 E17K) [nM]	IC50 (AKT1 WT) [nM]	IC50 (AKT2) [nM]
[2H]C(=O)c1cc(C(=O)N[C@H]2CCc3cc(-n4c(-c5cccnc5N)nc5c(C)cc(-n6cccn6)nc54)ccc32)ccc1O [Example 183, (S)—N-(5-(2-(2-aminopyridin-3-yl)-7-methyl-5-(1H-pyrazol-1-yl)-3H-imidazo[4,5-b]pyridin-3-yl)-2,3-dihydro-1H-inden-1-yl)-3-(formyl-d)-4-hydroxybenzamide]	100 to 2000	10 to 100	10 to 100	100 to 2000
Nc1ncccc1-c1nc2ccc(-n3cccn3)nc2n1-c1ccc2c(c1)CC[C@@H]2n1cnc2cc(O)c(C=O)cc2c1=O [Example 184, 3-[(1S)-5-[2-(2-aminopyridin-3-yl)-5-(pyrazol-1-yl)imidazo[4,5-b]pyridin-3-yl]-2,3-dihydro-1H-inden-1-yl]-7-hydroxy-4-oxoquinazoline-6-carbaldehyde]	10 to 100	10 to 100	10 to 100	100 to 2000
Cc1cnc(-c2ccc3nc(-c4cccnc4N)n(-c4ccc5c(c4)CC[C@@H]5NC(=O)c4cc(C=O)c(O)cc4F)c3n2)s1 [Example 185, N-[(1S)-5-[2-(2-aminopyridin-3-yl)-5-(5-methyl-1,3-thiazol-2-yl)imidazo[4,5-b]pyridin-3-yl]-2,3-dihydro-1H-inden-1-yl]-2-fluoro-5-formyl-4-hydroxybenzamide]	10 to 100	10 to 100	10 to 100	100 to 2000
Cc1cnc(-c2ccc3nc(-c4cccnc4N)n(-c4ccc5c(c4)CC[C@@H]5NC(=O)c4cc(C=O)c(O)c(F)c4F)c3n2)s1 [Example 186, N-[(1S)-5-[2-(2-aminopyridin-3-yl)-5-(5-methyl-1,3-thiazol-2-yl)imidazo[4,5-b]pyridin-3-yl]-2,3-dihydro-1H-inden-1-yl]-2,3-difluoro-5-formyl-4-hydroxybenzamide]	10 to 100	10 to 100	10 to 100	100 to 2000
Nc1ncccc1-c1nc2ccc(-n3cccn3)nc2n1-c1cc(F)c2c(c1)CC[C@@H]2NC(=O)c1ccc(O)c(C=O)c1 [Example 189, N-[(1S)-5-[2-(2-aminopyridin-3-yl)-5-(pyrazol-1-yl)imidazo[4,5-b]pyridin-3-yl]-7-fluoro-2,3-dihydro-1H-inden-1-yl]-3-formyl-4-hydroxybenzamide]	≥ 2000	100 to 2000	100 to 2000	≥ 2000
[2H]C(=O)c1cc(C(=O)N[C@H]2CCc3cc(-n4c(-c5cccnc5N)nc5ccc(-n6ccc(F)n6)nc54)ccc32)ccc1O [Example 190, (S)—N-(5-(2-(2-aminopyridin-3-yl)-5-(3-fluoro-1H-pyrazol-1-yl)-3H-imidazo[4,5-b]pyridin-3-yl)-2,3-dihydro-1-H-inden-1-yl)-3-(formyl-d)-4-hydroxybenzamide]	100 to 2000	10 to 100	100 to 2000	100 to 2000
CN(C)Cc1cc(C(=O)N[C@H]2CCc3cc(-n4c(-c5cccnc5N)nc5ccc(-n6cccn6)nc54)ccc32)cc(C=O)c1O [Example 192, N-[(1S)-5-[2-(2-aminopyridin-3-yl)-5-(pyrazol-1-yl)imidazo[4,5-b]pyridin-3-yl]-2,3-dihydro-1H-inden-1-yl]-3-[(dimethylamino)methyl]-5-formyl-4-hydroxybenzamide]	≥ 2000	100 to 2000	100 to 2000	≥ 2000
Nc1ncccc1-c1nc2ccc(-c3ncc(F)s3)nc2n1-c1ccc2c(c1)CC[C@@H]2NC(=O)c1cc(C=O)c(O)c(F)c1F [Example 193, N-[(1S)-5-[2-(2-aminopyridin-3-yl)-5-(5-fluoro-1,3-thiazol-2-yl)imidazo[4,5-b]pyridin-3-yl]-2,3-dihydro-1H-inden-1-yl]-2,3-difluoro-5-formyl-4-hydroxybenzamide]	10 to 100	10 to 100	10 to 100	10 to 100
Nc1ncccc1-c1nc2ccc(-c3ncc[nH]3)nc2n1-c1ccc2c(c1)CC[C@@H]2NC(=O)c1ccc(O)c(C=O)c1 [Example 194, N-[(1S)-5-[2-(2-aminopyridin-3-yl)-5-(1H-imidazol-2-yl)imidazo[4,5-b]pyridin-3-yl]-2,3-dihydro-1H-inden-1-yl]-3-formyl-4-hydroxybenzamide]	100 to 2000	10 to 100	100 to 2000	100 to 2000
Nc1ncccc1-c1nc2ccc(-n3cccn3)nc2n1-c1ccc2c(c1)CC(F)(F)[C@@H]2NC(=O)c1ccc(O)c(C=O)c1 [Example 195, (R)—N-(5-(2-(2-aminopyridin-3-yl)-5-(1H-pyrazol-1-yl)-3H-imidazo[4,5-b]pyridin-3-yl)-2,2-difluoro-2,3-dihydro-1H-inden-1-yl)-3-formyl-4-hydroxybenzamide]	10 to 100	10 to 100	100 to 2000	100 to 2000
Nc1ncccc1-c1nc2c(Cl)cc(-n3cccn3)nc2n1-c1ccc2c(c1)CC[C@@H]2NC(=O)c1ccc(O)c(C=O)c1 [Example 196, (S)—N-(5-(2-(2-aminopyridin-3-yl)-7-chloro-5-(1H-pyrazol-1-yl)-3H-imidazo[4,5-b]pyridin-3-yl)-2,3-dihydro-1H-inden-1-yl)-3-formyl-4-hydroxybenzamide]	100 to 2000	10 to 100	10 to 100	100 to 2000
CCc1cc(-n2cccn2)nc2c1nc(-c1cccnc1N)n2-c1ccc2c(c1)CC[C@@H]2NC(=O)c1ccc(O)c(C=O)c1 [Example 197, N-[(1S)-5-[2-(2-aminopyridin-3-yl)-7-ethyl-5-(pyrazol-1-yl)imidazo[4,5-b]pyridin-3-yl]-2,3-dihydro-1H-inden-1-yl]-3-formyl-4-hydroxybenzamide]	100 to 2000	10 to 100	10 to 100	10 to 100
Nc1ncccc1-c1nc2c(-n3cccn3)cc(-n3cccn3)nc2n1-c1ccc2c(c1)CC[C@@H]2NC(=O)c1ccc(O)c(C=O)c1 [Example 198, N-[(1S)-5-[2-(2-aminopyridin-3-yl)-5,7-bis(pyrazol-1-yl)imidazo[4,5-b]pyridin-3-yl]-2,3-dihydro-1H-inden-1-yl]-3-formyl-4-hydroxybenzamide]	100 to 2000	10 to 100	10 to 100	100 to 2000
Cc1cc(-n2ccc(F)n2)nc2c1nc(-c1cccnc1N)n2-c1ccc2c(c1)CC[C@@H]2NC(=O)c1cc(C=O)c(O)c(F)c1F [Example 199, N-[(1S)-5-[2-(2-aminopyridin-3-yl)-5-(3-fluoropyrazol-1-yl)-7-methylimidazo[4,5-b]pyridin-3-yl]-2,3-dihydro-1H-inden-1-yl]-2,3-difluoro-5-formyl-4-hydroxybenzamide]	100 to 2000	< 10	< 10	100 to 2000
COc1cc(-n2cccn2)nc2c1nc(-c1cccnc1N)n2-c1ccc2c(c1)CC[C@@H]2NC(=O)c1ccc(O)c(C=O)c1 [Example 200, N-[(1S)-5-[2-(2-aminopyridin-3-yl)-7-methoxy-5-(pyrazol-1-yl)imidazo[4,5-b]pyridin-3-yl]-2,3-dihydro-1H-inden-1-yl]-3-formyl-4-hydroxybenzamide]	100 to 2000	10 to 100	10 to 100	100 to 2000
C#Cc1cc(-n2cccn2)nc2c1nc(-c1cccnc1N)n2-c1ccc2c(c1)CC[C@@H]2NC(=O)c1ccc(O)c(C=O)c1 [Example 201, N-[(1S)-5-[2-(2-aminopyridin-3-yl)-7-ethynyl-5-(pyrazol-1-yl)imidazo[4,5-b]pyridin-3-yl]-2,3-dihydro-1H-inden-1-yl]-3-formyl-4-hydroxybenzamide]	100 to 2000	10 to 100	100 to 2000	100 to 2000
Cc1cc(-n2cccn2)nc2c1nc(-c1cccnc1N)n2-c1ccc2c(c1)CC[C@@H]2NC(=O)c1cc(C=O)c(O)cc1F [Example 202, (S)—N-(5-(2-(2-aminopyridin-3-yl)-7-methyl-5-(1H-pyrazol-1-yl)-3H-imidazo[4,5-b]pyridin-3-yl)-2,3-dihydro-1H-inden-1-yl)-2-fluoro-5-formyl-4-hydroxybenzamide]	10 to 100	10 to 100	10 to 100	10 to 100
Cc1nnc(-c2ccc3nc(-c4cccnc4N)n(-c4ccc5c(c4)CC[C@@H]5NC(=O)c4ccc(O)c(C=O)c4)c3n2)s1 [Example 203, N-[(1S)-5-[2-(2-aminopyridin-3-yl)-5-(5-methyl-1,3,4-thiadiazol-2-yl)imidazo[4,5-b]pyridin-3-yl]-2,3-dihydro-1H-inden-1-yl]-3-formyl-4-hydroxybenzamide]	100 to 2000	10 to 100	10 to 100	100 to 2000
[2H]C(=O)c1cc(C(=O)N[C@H]2CCc3cc(-n4c(-c5cccnc5N)nc5ccc(-n6cccn6)nc54)ccc32)c(F)c(F)c1O [Example 204, (S)—N-(5-(2-(2-aminopyridin-3-yl)-5-(1H-pyrazol-1-yl)-3H-imidazo[4,5-b]pyridin-3-yl)-2,3-dihydro-1H-inden-1-yl)-2,3-difluoro-5-(formyl-d)-4-hydroxybenzamide]	10 to 100	< 10	< 10	10 to 100
Nc1ncccc1-c1nc2ccc(-n3cccn3)nc2n1-c1ccc2c(c1)CC[C@@H]2NC(=O)c1cc(C=O)c(O)cc1-n1cccn1 [Example 205, N-[(1S)-5-[2-(2-aminopyridin-3-yl)-5-(pyrazol-1-yl)imidazo[4,5-b]pyridin-3-yl]-2,3-dihydro-1H-inden-1-yl]-5-formyl-4-hydroxy-2-(pyrazol-1-yl)benzamide]	100 to 2000	10 to 100	10 to 100	100 to 2000
